According to patent US7964556B1, “Antimicrobial peptides and use thereof” (Toagosei Co., Ltd, priority 2004, dated 2011):
Where a SMILES comes first, the peptide text is derived from it.

Columns and labels:
Assay type in all cases: cell-based
S. aureus = test system: S. aureus
Method: Next, the antimicrobial activities (MIC) against gram-positive bacteria (S. aureus) in the presence of serum and high concentration of cation were tested with the same method as Example 2. However, only the above-described sample 9 was used as the test peptide. Specifically, a drug (synthesized peptide of sample 9) solution having a concentration of 40 times of the highest test concentration was prepared using sterile distilled water. Thereafter, MHB mediums (“Mueller Hinton Broth” manufactured by DIFCO) including high concentration of cation with peptide concentrations of 50, 25, 12.5, 6.25, 3.13, 1.56 and 0.78 μM were produced respectively. The cation included was prepared as follows: dissolving 3.68 g of CaCl2.2H2O in 100 mL of purified water (10 mg.Ca^2+/mL), and thereafter adding 500 μL thereof into 100 mL of Mueller Hinton Broth; and dissolving 8.36 g of MgCl2.6H2O in 100 mL of purified water (10 mg.Mg^2+/mL), and thereafter adding 250 μL thereof into 100 mL of Mueller Hinton Broth.
Mediums (hereinafter “MHB serum mediums including high concentration of cation”) were further prepared by adding horse serum (mechanically sterilized Nippon Biotest Laboratories inc. product), which made up of 10% volume ratio of the entire medium, into the MHB mediums including high concentration of cation. The MHB serum mediums including high concentration of cation had peptide concentrations of 50, 25, 12.5, 6.25, 3.13, 1.56 and 0.78 μM.
Next, the above-described MHB mediums including high concentration of cation and having peptide of each concentration, and the above-described MHB serum mediums including high concentration of cation and having peptide of each concentration were fed to the 96-well microplate at 100 μL a time, and the MIC were determined using the same method as example 2. As comparison, commercially available MHB mediums having peptide concentration of 50, 25, 12.5, 6.25, 3.13, 1.56 and 0.78 μM were used.

Escherichia coli = details: 24 h
Method: (§1) Regarding the antimicrobial peptide in samples 1 to 14 and the comparative sample 1, the antimicrobial activities (minimum inhibitory concentration: MIC) with respect to gram-negative bacteria (Escherichia coli) and gram-positive bacteria (Staphylococcus aureus) were determined, as described below, by a liquid medium dilution technique using a 96-well microplate. First, a drug (synthesized peptide) solution having a concentration of 40 times of the highest test concentration was prepared using sterile distilled water, and thereafter liquid-bouillon mediums (“NUTRIENT BROTH Dehydrated” manufactured by DIFCO) having peptide concentrations of 200, 100, 50, 25, 12.5, 6.25, 3.13, 1.56 and 0.78 μM were produced respectively. The produced liquid-bouillon mediums including the peptide of each concentration were then fed to the 96-well microplate at 100 μL a time.
(§2) At the same time, test bacteria cultured for 18 hours at 37° C. on an agar plate (“Muller Hinton Agar” manufactured by DIFCO) were gathered by scratching with a loop, and then suspended in a sterilized physiological saline. Bacterial suspension 5 μL prepared at an equivalent of 2×10^7 cells/mL was respectively inoculated (number of bacteria to be tested: approximately 1×10^6 cells/mL) onto the above-described liquid-bouillon mediums including the peptide of each concentration and fed to each well of the above-described microplate. After inoculation, the microplate was then incubated in an incubator at 37° C., and the presence of bacteria was evaluated based on the turbidity 24 hours later. The minimum drug concentration (peptide concentration), in which an increased in turbidity caused by bacteria was not detected at the time of measurement, was defined as MIC (minimum inhibitory concentration) (unit: μM) in the present embodiment.

Staphylococcus aureus = details: for Antimicrobial Activities (MIC) S. aureus: 24 h; for antimicrobial activities against gram-positive bacteria (S. aureus), in words: summary of Table 2
Method: as §1, §2

sheep's erythrocytes = test system: sheep's erythrocytes
Method: A test on the hemolytic activity of 2 kinds of synthesized peptides (sample 9 and sample 10) in example 1 was performed and served as indicator of the effects of these peptides on animal cell (erythrocyte). The hemolytic activity test in the present example was performed as follows. Specifically, sample peptides were dissolved in PBS (pH7.4), and thereafter 10 stages of twice diluted strains (sample solutions) with peptide concentration of 400, 200, 100, 50, 25, 12.5, 6.25, 3.13, 1.56 and 0.78 μM were prepared. Here, PBS was used as a control of 0% hemolysis, and PBS containing 0.1% of triton X-100 was used as a control of 100% hemolysis. Erythrocyte of fiber-free sheep's blood was then added to these sample solutions such that the volume ratio (v/v) was 1% of these sample solutions. After adding the above-described red blood cells, the sample solutions were incubated for 1 hour at 37° C., and thereafter the hemolysis was ceased with cold water. Next, centrifugal separation at 3000 rpm was performed for […] at 4° C.
After centrifugal separation, each supernatant was fed to the 96-well microplate, and absorbency under 540 nm wavelength was determined. The hemolytic rate (%) was then calculated by the following formula based on the results determined: {(Aexp−A0)/A100}×100. […]

Row | SMILES | Antimicrobial Activities (MIC) against S. aureus, MHB (S. aureus) | Antimicrobial Activities (MIC) against S. aureus, MHB + Cation (S. aureus) | Antimicrobial Activities (MIC) against S. aureus, MHB + Cation + Horse Serum (S. aureus) | Antimicrobial Activities (MIC) E. coli (Escherichia coli) | Antimicrobial Activities (MIC) S. aureus (Staphylococcus aureus) | antimicrobial activities against gram-positive bacteria (S. aureus), in words (Staphylococcus aureus) | hemolytic activities, in words (sheep's erythrocytes)
1 | CC[C@H](C)[C@H](NC(=O)[C@H](CCC(N)=O)NC(=O)[C@@H](NC(=O)[C@H](CCCCN)NC(=O)[C@@H](NC(=O)[C@H](CCCCN)NC(=O)[C@H](CCCNC(=N)N)NC(=O)[C@H](CCCCN)NC(=O)[C@H](CCCCN)NC(=O)[C@H](CCCCN)NC(=O)[C@@H](N)CCCNC(=N)N)C(C)C)C(C)C)C(=O)N[C@H](C(=O)N[C@@H](CC(N)=O)C(=O)N[C@@H](CCCCN)C(=O)N[C@@H](CCCCN)C(N)=O)[C@@H](C)CC [Sample 9, RKKKRKVKVQIINKK] (H-RKKKRKVKVQIINKK-NH2) | 3.13 µM | 3.13 µM | 3.13 µM | 3.13 µM | 0.78 µM | particularly high antimicrobial activities | significantly low
2 | CC(C)[C@H](NC(=O)[C@H](C)NC(=O)[C@@H](NC(=O)[C@H](CCCCN)NC(=O)[C@H](CCCCN)NC(=O)[C@@H](NC(=O)[C@H](CCCCN)NC(=O)[C@H](CCCNC(=N)N)NC(=O)[C@H](CCCCN)NC(=O)[C@H](CCCCN)NC(=O)[C@H](CCCCN)NC(=O)[C@@H](N)CCCNC(=N)N)C(C)C)C(C)C)C(=O)N[C@H](C(=O)N[C@@H](CCCNC(=N)N)C(=O)N[C@H](C(N)=O)[C@@H](C)O)C(C)C [Sample 10, RKKKRKVKKVAVVRT] (H-RKKKRKVKKVAVVRT-NH2) |  |  |  | 12.5 µM | 3.13 µM | particularly high antimicrobial activities | significantly low
